Source: BigSolDB 2.1

O=C(O)c1ccc(-c2ccccc2)cc1
solubility (mole fraction)
Conditions	in benzene	in ethanol	in ethyl acetate	in isobutanol	in isopropanol	in methanol	in methyl acetate	in n-butanol	in n-propanol
293.15 K	0.00101	0.00366	0.00654	0.00276	0.0039	0.00255	0.0051	0.00471	0.00426
298.15 K	0.00123	0.00436	0.00802	0.00349	0.00464	0.00304	0.00593	0.00559	0.00509
303.15 K	0.00149	0.00512	0.00923	0.00418	0.00563	0.0036	0.00704	0.00658	0.00598
308.15 K	0.00179	0.00606	0.0108	0.0051	0.00653	0.00424	0.00815	0.00775	0.00685
313.15 K	0.00214	0.0072	0.0124	0.0063	0.00779	0.00484	0.00942	0.00897	0.00817
318.15 K	0.00254	0.00831	0.0143	0.00781	0.00952	0.00584	0.0108	0.0105	0.00954
323.15 K	0.003	0.00962	0.0165	0.0093	0.0115	0.0066	0.0126	0.012	0.0112
328.15 K	0.00353	0.0109	0.019	0.0111	0.0134	0.0076	0.0145	0.0138	0.0132
